This note sets out measurements from ChEMBL document CHEMBL3585290, “Synthesis and biological evaluation of novel bivalent -carbolines as potential antitumor agents” (Medchemcomm, 2014).

Data set [1] can be described thus: Acute toxicity in ip dosed C57BL/6 mouse measured for 14 days. It counts as organism-based. The settings on record: in vivo.
For another data set, the system named is 769-P. Briefly: Cytotoxicity against human 769-P cells after 48 hrs by MTT assay. It counts as functional, cell-based. Background: Formazan colour is commonly taken as a measure of viable cells.
Data set [2] can be described thus: Cytotoxicity against human BGC823 cells after 48 hrs by MTT assay. The class given is functional, cell-based. The settings on record: BGC-823, 48 h.
The subject of another data set is KB. Briefly: Cytotoxicity against human KB cells after 48 hrs by MTT assay. It counts as functional, cell-based.
Data set [3] concerns Lewis lung carcinoma cell line. Nature of the data set: Antitumor activity against mouse LLC cells implanted in mouse assessed as tumor growth inhibition at 76.9 umol/kg, ip qd administered for 7 days starting 24 hrs post tumor implantation measured after day 21 relative to control. It counts as functional. The settings on record: read-out: TGI.
A further data set has as its system SK-OV-3. Briefly: Cytotoxicity against human SKOV3 cells after 48 hrs by MTT assay. The class given is functional, cell-based. The settings on record: SK-OV-3, 48 h.
In a further data set the test system is A-375. Nature of the data set: Cytotoxicity against human A375 cells after 48 hrs by MTT assay. The class given is functional, cell-based. The settings on record: A-375, 48 h.
The subject of data set [4] is CT26. Nature of the data set: Antitumor activity against mouse CT26 cells implanted in mouse assessed as tumor growth inhibition at 76.9 umol/kg, ip qd administered for 7 days starting 24 hrs post tumor implantation measured after day 21 relative to control. The note with it: read-out: TGI. The class given is functional.
In data set [5] the test system is CT26. Briefly: Antitumor activity against mouse CT26 cells implanted in mouse assessed as tumor growth inhibition at 223.8 umol/kg, ip qd administered for 7 days starting 24 hrs post tumor implantation measured after day 21 relative to control. It counts as functional. The settings on record: read-out: TGI.
Data set [6] deals with Lewis lung carcinoma cell line. Briefly: Antitumor activity against mouse LLC cells implanted in mouse assessed as tumor growth inhibition at 223.8 umol/kg, ip qd administered for 7 days starting 24 hrs post tumor implantation measured after day 21 relative to control. It counts as functional. The settings on record: read-out: TGI.
The subject of data set [7] is CT26. Nature of the data set: Antitumor activity against mouse CT26 cells implanted in mouse assessed as tumor growth inhibition at 32.3 umol/kg, ip qd administered for 7 days starting 24 hrs post tumor implantation measured after day 21 relative to control. It counts as functional. The note with it: read-out: TGI.
For data set [8], the system named is Lewis lung carcinoma cell line. Nature of the data set: Antitumor activity against mouse LLC cells implanted in mouse assessed as tumor growth inhibition at 32.3 umol/kg, ip qd administered for 7 days starting 24 hrs post tumor implantation measured after day 21 relative to control. It counts as functional. The note with it: read-out: TGI.
Data set [9] concerns Lewis lung carcinoma cell line. Briefly: Antitumor activity against mouse LLC cells implanted in mouse assessed as tumor growth inhibition at 212.1 umol/kg, ip qd administered for 7 days starting 24 hrs post tumor implantation measured after day 21 relative to control. The class given is functional. The note with it: read-out: TGI.
Data set [10] deals with CT26. Briefly: Antitumor activity against mouse CT26 cells implanted in mouse assessed as tumor growth inhibition at 212.1 umol/kg, ip qd administered for 7 days starting 24 hrs post tumor implantation measured after day 21 relative to control. The class given is functional. The note with it: read-out: TGI.
Data set [11] concerns CT26. Nature of the data set: Antitumor activity against mouse CT26 cells implanted in mouse assessed as tumor growth inhibition at 26.9 umol/kg, ip qd administered for 7 days starting 24 hrs post tumor implantation measured after day 21 relative to control. The settings on record: read-out: TGI. The class given is functional.
The test system of data set [12] is Lewis lung carcinoma cell line. Briefly: Antitumor activity against mouse LLC cells implanted in mouse assessed as tumor growth inhibition at 26.9 umol/kg, ip qd administered for 7 days starting 24 hrs post tumor implantation measured after day 21 relative to control. It counts as functional. The note with it: read-out: TGI.
The subject of data set [13] is Lewis lung carcinoma cell line. Briefly: animal or person. The note with it: Mus musculus, ip, read-out: TGI.
Description: Antitumor activity against mouse LLC cells implanted in mouse assessed as tumor growth inhibition at 114.9 umol/kg, ip qd administered for 7 days starting 24 hrs post tumor implantation measured after day 21 relative to control
Data set [14] has as its system CT26. Nature of the data set: animal or person. The note with it: Mus musculus, CT26, ip, read-out: TGI.
Description: Antitumor activity against mouse CT26 cells implanted in mouse assessed as tumor growth inhibition at 114.9 umol/kg, ip qd administered for 7 days starting 24 hrs post tumor implantation measured after day 21 relative to control
Data set [15] has as its system Lewis lung carcinoma cell line. Briefly: Antitumor activity against mouse LLC cells implanted in mouse assessed as tumor growth inhibition at 11.1 umol/kg, ip qd administered for 7 days starting 24 hrs post tumor implantation measured after day 21 relative to control. It counts as functional. The settings on record: read-out: TGI.
For data set [16], the system named is CT26. Nature of the data set: Antitumor activity against mouse CT26 cells implanted in mouse assessed as tumor growth inhibition at 11.1 umol/kg, ip qd administered for 7 days starting 24 hrs post tumor implantation measured after day 21 relative to control. It counts as functional. The note with it: read-out: TGI.

The LD50 is the dose at which mortality reaches 50%. The low end stands for a more toxic substance, the high end for a less toxic substance. Usually IC50 stands for the concentration that gives 50% inhibition. A lower IC50 goes with greater potency.

In the case of `Cc1nc(C(=O)OCCCOC(=O)c2cc3c4ccccc4n(C)c3c(C)n2)cc2c3ccccc3n(C)c12`, the LD50 at 336 h in data set [1] turned out to be 385 µmol/kg. Moreover, the IC50 with 769-P turned out to be 16.3 µM; in data set [2] it was 19.5 µM; with KB, 18.4 µM; with SK-OV-3, 21 µM; in the data set with A-375, 16.6 µM. Moreover, the figures for the inhibition in vivo at 76.9 µmol/kg (in [3]; in the data set on CT26 [4]) were 28.1% and 23.6%, respectively.
Regarding `CCCCn1c2ccccc2c2cc(C(=O)O)ncc21`, the LD50 at 336 h in data set [1] was determined as 1120 µmol/kg. Besides, the IC50 in the data set with 769-P is 42.7 µM; in [2], 125 µM; with KB, 67.7 µM; in the data set with SK-OV-3, greater than 200 µM; in the data set on A-375, 79.6 µM. In addition, the inhibition in vivo at 223.8 µmol/kg in the data set on CT26 [5] came out at 18.7%; in data set [6], 45.4%.
As for `CCCCn1c2ccccc2c2cc(C(=O)OCCCCCCOC(=O)c3cc4c5ccccc5n(CCCC)c4cn3)ncc21`, the results for the inhibition in vivo at 32.3 µmol/kg (in the data set with CT26 [7]; in data set [8]) were 33.8% and 64.2%, respectively. Besides, in data set [1], the LD50 at 336 h was found to be 162 µmol/kg. In addition, the half-maximal inhibitory concentration (IC50) in the data set on 769-P was 112 µM; in [2], 43.2 µM; in the data set with KB it was 15.6 µM; with SK-OV-3 it was greater than 200 µM; with A-375 it was 18.2 µM.
Take `O=C(O)c1cc2c3ccccc3n(CCCc3ccccc3)c2cn1`: the LD50 at 336 h in data set [1] turned out to be 1090 µmol/kg. In addition, the values for the inhibition in vivo at 212.1 µmol/kg (in [9]; with CT26 [10]) were 40.3% and 20.3%, respectively. The IC50 in the data set with 769-P is 56.8 µM; in data set [2] it was 36.7 µM; in the data set on KB, 86.4 µM; with SK-OV-3, greater than 200 µM; in the data set with A-375 it was 67.6 µM.
On to `O=C(OCCCCCCOC(=O)c1cc2c3ccccc3n(CCCc3ccccc3)c2cn1)c1cc2c3ccccc3n(CCCc3ccccc3)c2cn1`, for which the 50% lethal dose (LD50) at 336 h in [1] came to 135 µmol/kg. Also, the figures for the inhibition in vivo at 26.9 µmol/kg (in the data set on CT26 [11]; in [12]) were 28.3% and 53.5%, respectively. Besides, the IC50 with 769-P was 29.4 µM; in [2], greater than 200 µM; in the data set with KB, 56.4 µM; in the data set on SK-OV-3, 8.5 µM; in the data set on A-375 it was 14.4 µM.
As for `O=P1(N(CCCl)CCCl)NCCCO1` (stereo not given) [CYCLOPHOSPHAMIDE ANHYDROUS], the inhibition in vivo at 114.9 µmol/kg turned out to be 88.1% in [13] and 87.6% in the data set on CT26 [14].
Regarding `Cc1nc(C(=O)OCCCCCCCCCOC(=O)c2cc3c4ccccc4n(CCCc4ccccc4)c3c(C)n2)cc2c3ccccc3n(CCCc3ccccc3)c12`, the IC50 in the data set on 769-P is 108 µM; in [2] it was greater than 200 µM; in the data set on KB, 50.7 µM; in the data set on SK-OV-3 it was greater than 200 µM; in the data set with A-375, greater than 200 µM.
For `O=C(OCCCCCCOC(=O)c1cc2c3ccccc3n(Cc3cccc(Cl)c3)c2cn1)c1cc2c3ccccc3n(Cc3cccc(Cl)c3)c2cn1`, the IC50 is 21.9 µM in the data set on 769-P; greater than 200 µM in data set [2]; 46.9 µM in the data set with KB; 19 µM with SK-OV-3; greater than 200 µM in the data set with A-375.
Consider `COc1ccc(-c2nc(C(=O)OCCCCCCOC(=O)c3cc4c5ccccc5n(CCCc5ccccc5)c4c(-c4ccc(OC)cc4)n3)cc3c4ccccc4n(CCCc4ccccc4)c23)cc1`, for which the median lethal dose (LD50) at 336 h in data set [1] is 55.8 µmol/kg. In addition, the IC50 with 769-P was 95.5 µM; in [2] it was 140 µM; in the data set on KB it was 218 µM; in the data set with SK-OV-3, greater than 200 µM; in the data set on A-375, 132 µM. For the same compound, the inhibition in vivo at 11.1 µmol/kg was 24.6% in [15] and 15.1% in the data set on CT26 [16].
As to `CCCCn1c2ccccc2c2cc(C(=O)OCCCCCCCCCOC(=O)c3cc4c5ccccc5n(CCCC)c4cn3)ncc21`, the IC50 in the data set on 769-P was 115 µM; in data set [2], greater than 200 µM; in the data set on KB, 26.4 µM; in the data set with SK-OV-3, greater than 200 µM; with A-375, 89.6 µM.
Regarding `O=C(OCCCOC(=O)c1cc2c3ccccc3n(CCCc3ccccc3)c2cn1)c1cc2c3ccccc3n(CCCc3ccccc3)c2cn1`, the IC50 in the data set on 769-P was 95.6 µM; in data set [2], greater than 200 µM; in the data set on KB it was 72.4 µM; with SK-OV-3, greater than 200 µM; in the data set on A-375, greater than 200 µM.
